Assay results from US20240299385A1 (ReWind Therapeutics NV, priority 2021, published 2024).

Target: T1, human GPR17 receptor (Homo sapiens, UniProt Q13304)
T1 construct: host or cells: HEK-293
Experiment: Calcium mobilization functional assay (Fluo-8, FLIPR TETRA) in HEK-293 hGPR17 (Gα-q assay)
Type: cell-based
Conditions: antagonism of MDL29,951 (~EC80) induced Ca2+ signal; cell line (HEK-293 hGPR17 or HEK-293 Suchi5 hGPR17) not given
In short: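 Fluo-8-loaded HEK-293 hGPR17 cells (60 min dye loading, room temperature) were preincubated with compound for twenty minutes, then challenged with agonist MDL29,951 at ~EC80, 500 nM. Intracellular calcium release via Gα-q was recorded as FLIPR fluorescence for a further 2 minutes; compounds tested in duplicate.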

T1 sequence (Q13304 whole entry): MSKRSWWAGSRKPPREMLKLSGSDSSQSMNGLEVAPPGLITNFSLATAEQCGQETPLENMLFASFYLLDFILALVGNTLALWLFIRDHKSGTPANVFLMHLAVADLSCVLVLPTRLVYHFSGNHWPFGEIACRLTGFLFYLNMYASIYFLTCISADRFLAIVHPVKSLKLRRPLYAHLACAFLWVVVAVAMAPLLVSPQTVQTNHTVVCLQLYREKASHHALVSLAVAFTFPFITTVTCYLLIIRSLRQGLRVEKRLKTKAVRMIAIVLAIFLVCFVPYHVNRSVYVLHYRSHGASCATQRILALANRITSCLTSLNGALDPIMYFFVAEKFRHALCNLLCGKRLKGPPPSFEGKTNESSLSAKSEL

Row | IC50 [µM] | SMILES
1 | 0.5 to 5 | O=S(=O)(Nc1cc(F)c(C(F)(F)F)cc1F)c1c[nH]c(-c2cccc3ccoc23)c1 [Cpd 517, 5-(1-benzofuran-7-yl)-N-[2,5-difluoro-4-(trifluoromethyl)phenyl]-1H-pyrrole-3-sulfonamide]
2 | 0.5 to 5 | COc1cscc1-c1cc(S(=O)(=O)Nc2cc(F)c(C(F)(F)F)cc2F)c[nH]1 [Cpd 518, N-[2,5-difluoro-4-(trifluoromethyl)phenyl]-5-(4-methoxythiophen-3-yl)-1H-pyrrole-3-sulfonamide]
3 | 0.5 to 5 | O=S(=O)(Nc1cc(F)c(C(F)(F)F)cc1F)c1c[nH]c(-c2cccc3c2OCC3)c1 [Cpd 519, N-[2,5-difluoro-4-(trifluoromethyl)phenyl]-5-(2,3-dihydro-1-benzofuran-7-yl)-1H-pyrrole-3-sulfonamide]
4 | 5 to 50 | O=C1CCC(c2cc(S(=O)(=O)Nc3cc(F)c(C(F)(F)F)cc3F)c[nH]2)C1 (centres unmarked) [Cpd 520, N-(2,5-difluoro-4-(trifluoromethyl)phenyl)-5-(3-oxocyclopentyl)-1H-pyrrole-3-sulfonamide]
5 | 5 to 50 | CN(C)c1cccc(-c2cc(S(=O)(=O)Nc3ccc(C#N)cc3F)c[nH]2)c1 [Cpd 521, N-(4-cyano-2-fluorophenyl)-5-[3-(dimethylamino)phenyl]-1H-pyrrole-3-sulfonamide]
6 | < 0.5 | N#Cc1cc(F)c(NS(=O)(=O)c2c[nH]c(-c3cc(Cl)ccc3F)c2)cc1Cl [Cpd 523, N-(5-chloro-4-cyano-2-fluorophenyl)-5-(5-chloro-2-fluorophenyl)-1H-pyrrole-3-sulfonamide]
7 | 0.5 to 5 | N#Cc1cc(F)c(NS(=O)(=O)c2c[nH]c(-c3ccc(F)cc3)c2)cc1Cl [Cpd 524, N-(5-chloro-4-cyano-2-fluorophenyl)-5-(4-fluorophenyl)-1H-pyrrole-3-sulfonamide]
8 | 0.5 to 5 | N#Cc1cc(F)c(NS(=O)(=O)c2c[nH]c(-c3ccc(F)cc3F)c2)cc1Cl [Cpd 525, N-(5-chloro-4-cyano-2-fluorophenyl)-5-(2,4-difluorophenyl)-1H-pyrrole-3-sulfonamide]
9 | 0.5 to 5 | O=S(=O)(Nc1cc(F)c(OC(F)F)cc1F)c1c[nH]c(-c2ccccc2Cl)c1 [Cpd 526, 5-(2-chlorophenyl)-N-[4-(difluoromethoxy)-2,5-difluorophenyl]-1H-pyrrole-3-sulfonamide]
10 | < 0.5 | O=S(=O)(Nc1cc(F)c(Br)cc1F)c1c[nH]c(-c2cccc(Cl)n2)c1 [Cpd 527, N-(4-bromo-2,5-difluorophenyl)-5-(6-chloropyridin-2-yl)-1H-pyrrole-3-sulfonamide]
11 | < 0.5 | O=S(=O)(Nc1cc(F)c(Br)cc1F)c1c[nH]c(-c2cccc(Br)n2)c1 [Cpd 528, N-(4-bromo-2,5-difluorophenyl)-5-(6-bromopyridin-2-yl)-1H-pyrrole-3-sulfonamide]
12 | < 0.5 | CCc1cc(NS(=O)(=O)c2c[nH]c(-c3ccccc3)c2)c(F)cc1C#N [Cpd 529, N-(4-cyano-5-ethyl-2-fluorophenyl)-5-phenyl-1H-pyrrole-3-sulfonamide]
13 | < 0.5 | COc1ccccc1-c1cc(S(=O)(=O)Nc2cc(F)c(OC(F)F)cc2F)c[nH]1 [Cpd 530, N-[4-(difluoromethoxy)-2,5-difluorophenyl]-5-(2-methoxyphenyl)-1H-pyrrole-3-sulfonamide]
14 | < 0.5 | COc1c(F)cccc1-c1cc(S(=O)(=O)Nc2cc(F)c(OC(F)F)cc2F)c[nH]1 [Cpd 531, N-[4-(difluoromethoxy)-2,5-difluorophenyl]-5-(3-fluoro-2-methoxyphenyl)-1H-pyrrole-3-sulfonamide]
15 | 0.5 to 5 | COc1ccccc1-c1cc(S(=O)(=O)Nc2cc(F)c(Br)cc2F)c[nH]1 [Cpd 532, N-(4-bromo-2,5-difluorophenyl)-5-(2-methoxyphenyl)-1H-pyrrole-3-sulfonamide]
16 | 0.5 to 5 | O=S(=O)(Nc1cc(F)c(Br)cc1F)c1c[nH]c(-c2ccccc2Cl)c1 [Cpd 533, N-(4-bromo-2,5-difluorophenyl)-5-(2-chlorophenyl)-1H-pyrrole-3-sulfonamide]
17 | 0.5 to 5 | O=S(=O)(Nc1cc(F)c(Br)cc1F)c1c[nH]c(-c2cccc3cccnc23)c1 [Cpd 534, N-(4-bromo-2,5-difluorophenyl)-5-quinolin-8-yl-1H-pyrrole-3-sulfonamide]
18 | < 0.5 | N#Cc1ccc(NS(=O)(=O)c2c[nH]cc2Cc2ccc(F)c(F)c2)c(F)c1 [Cpd 535, N-(4-cyano-2-fluorophenyl)-4-[(3,4-difluorophenyl)methyl]-1H-pyrrole-3-sulfonamide]
19 | < 0.5 | COc1cc(Cc2c[nH]cc2S(=O)(=O)Nc2ccc(C#N)cc2F)ccc1F [Cpd 536, N-(4-cyano-2-fluorophenyl)-4-[(4-fluoro-3-methoxyphenyl)methyl]-1H-pyrrole-3-sulfonamide]
20 | 0.5 to 5 | O=S(=O)(Nc1cc(F)c(CO)cc1F)c1c[nH]c(-c2ccccc2)c1 [Cpd 537, N-[2,5-difluoro-4-(hydroxymethyl)phenyl]-5-phenyl-1H-pyrrole-3-sulfonamide]
21 | 0.5 to 5 | Cc1ncc(-c2cc(S(=O)(=O)Nc3cc(F)c(C(F)(F)F)cc3F)c[nH]2)s1 [Cpd 538, N-[2,5-difluoro-4-(trifluoromethyl)phenyl]-5-(2-methyl-1,3-thiazol-5-yl)-1H-pyrrole-3-sulfonamide]
22 | < 0.5 | COc1sccc1-c1cc(S(=O)(=O)Nc2cc(F)c(C(F)(F)F)cc2F)c[nH]1 [Cpd 539, N-[2,5-difluoro-4-(trifluoromethyl)phenyl]-5-(2-methoxythiophen-3-yl)-1H-pyrrole-3-sulfonamide]
23 | 0.5 to 5 | Cn1cc2cccc(-c3cc(S(=O)(=O)Nc4cc(F)c(C(F)(F)F)cc4F)c[nH]3)c2n1 [Cpd 540, N-[2,5-difluoro-4-(trifluoromethyl)phenyl]-5-(2-methylindazol-7-yl)-1H-pyrrole-3-sulfonamide]
24 | < 0.5 | N#Cc1cccc(-c2cc(S(=O)(=O)Nc3cc(F)c(Br)cc3F)c[nH]2)c1 [Cpd 541, N-(4-bromo-2,5-difluorophenyl)-5-(3-cyanophenyl)-1H-pyrrole-3-sulfonamide]
25 | < 0.5 | N#Cc1ccc(NS(=O)(=O)c2c[nH]c(-c3cccc(F)c3OC3CC3)c2)c(F)c1 [Cpd 542, N-(4-cyano-2-fluorophenyl)-5-(2-cyclopropyloxy-3-fluorophenyl)-1H-pyrrole-3-sulfonamide]
26 | < 0.5 | N#Cc1ccc(NS(=O)(=O)c2c[nH]c(-c3ncc(F)cc3F)c2)c(F)c1 [Cpd 543, N-(4-cyano-2-fluorophenyl)-5-(3,5-difluoropyridin-2-yl)-1H-pyrrole-3-sulfonamide]
27 | < 0.5 | COc1c(F)cccc1-c1cc(S(=O)(=O)Nc2cc(F)c(Br)cc2F)c[nH]1 [Cpd 544, N-(4-bromo-2,5-difluorophenyl)-5-(3-fluoro-2-methoxyphenyl)-1H-pyrrole-3-sulfonamide]
28 | < 0.5 | N#Cc1ccc(NS(=O)(=O)c2c[nH]cc2Cc2ccc(F)c(Cl)c2)c(F)c1 [Cpd 545, 4-[(3-chloro-4-fluorophenyl)methyl]-N-(4-cyano-2-fluorophenyl)-1H-pyrrole-3-sulfonamide]

Row | SMILES | IC50 [µM]
29 | N#Cc1cc(F)c(NS(=O)(=O)c2c[nH]c(-c3ccccc3F)c2)cc1Cl [Cpd 522, N-(5-chloro-4-cyano-2-fluorophenyl)-5-(2-fluorophenyl)-1H-pyrrole-3-sulfonamide] | < 0.5
